Measured values as given in PMC4888613, “Antifilarial activity of diterpenoids from Taxodium distichum” (Parasites & Vectors, 2016).
Where “and” joins values, the source holds several entries; their conditions need not be identical. Equal values may be shown once. Entries after “also recorded” stand apart in the source; their conditions may differ. Read-outs that look alike come from different tables or passages of the source.

What was measured:
[1] = system: Brugia malayi; assay: B. malayi-M. unguiculatus model (primary screening, intraperitoneal adult worm transplant); assay type: in vivo, Meriones unguiculatus; conditions: for Effect on mf in peritoneal cavity / Sterilised female worm count / Worms recovered, Total / Sterilised female worms (%) (embryostatic activity) / Total worms, % reduction over untreated (macrofilaricidal activity): doses as in Table 2; for Sterilised female worm count / Worms recovered, Total / Worms recovered, Female / Worms recovered, Male: mean ± SD; for Sterilised female worm count / Worms recovered, Total / Worms recovered, Female / Worms recovered, Male / Sterilised female worms (%) (embryostatic activity) / Total worms, % reduction over untreated (macrofilaricidal activity): day 56 p.i.t.; for Worms recovered, Total: A001: the 5 of 6 animals without worms; for Worms recovered, Female / Worms recovered, Male: x 5 days: A001 500 mg/kg p.o., K003/K004 100, ivermectin 1, DEC-C 25 mg/kg s.c.; for Effect on adult worms: ivermectin 1 mg/kg
From the text: (§1) Meriones unguiculatus bearing intraperitoneally instilled adult worms and M. coucha inoculated with B. malayi L3 and showing microfilaremia in peritoneal cavity on day 3 post adult worm transplantation (p.a.t.) and progressive rise in microfilaraemia in peripheral circulation from day 120–180 post larval inoculation (p.l.i.), were employed as primary and secondary screening models, respectively, for assaying the antifilarial efficacy of the test agents.
(§2) The test agents were pulverised to fine powder and suspended in 1 % gum acacia/0.1 % Tween-80 in sterile distilled water. DEC-C and ivermectin were prepared in distilled water and ≤ 0.1 % Tween-80, respectively. The suspensions/solutions of the agents were prepared daily before administration to the animals.
(§3) Compounds K003 and K004 were given at 100 mg/kg body weight, subcutaneously (s.c.). The reference drugs DEC-C and ivermectin were administered to M. unguiculatus at 25 and 1 mg/kg body weight, respectively, while the M. coucha model received DEC-C at 50 mg/kg, body weight. […] Infected animals treated with vehicle only were used as control.
Male M. unguiculatus 8–10 weeks old (40–45 g) transplanted intraperitoneally with freshly isolated adult worms from B. malayi-infected M. unguiculatus were used for primary screening of test agents. On day 3 p.a.t., the peritoneal fluid was aspirated and checked for the presence of mf. The treatment was started on day 7/8 p.a.t. and continued for 5 consecutive days. On day 7/8 post-initiation of treatment (p.i.t) and thereafter at fortnightly intervals, the peritoneal fluid was examined under microscope to assess the condition of mf. All animals were killed on day 56 p.i.t. and parasites were collected from p.c., counted and examined for their viability and motility under microscope.
(§4) As a standard practice (following an accepted protocol) all the M. unguiculatus and M. coucha treated with test agents and vehicle were observed daily for their general health and behaviour (cage side observations) throughout the course of treatment and thereafter till termination of the experiment.
(§5) Microfilaricidal efficacy of the test agents was evaluated at each time point p.i.t and expressed as percent change in mf count over the pretreatment level.
(§6) Macrofilaricidal/adulticidal efficacy of the agents was assessed by calculating percent reduction in adult worm recovery in treated animals over untreated animals. Embryostatic/embryotoxic effect of agents was assessed by examining the uterine contents of female worms using the method described elsewhere and the percent of sterilised worms was determined from total female worms recovered from the treated and control animals.

[2] = CC50 cytotoxicity assay; assay type: cell-based, African green monkey; conditions: African green monkey
Method: (§7) The assay was run in replicates in each of the two independent experiments.
(§8) Data were transferred to a graphic program (MS Excel) and IC50 and CC50 were calculated by linear interpolation between the two concentrations above and below 50 % inhibition.

[3] = system: Brugia malayi adult worms (AW); assay: In vitro motility assay on adult female worms; assay type: cell-based; conditions: for IC50: read-out: IC50 for AW in MA
Method: (§9) Microfilariae and adult worms were harvested from p.c. of the M. unguiculatus harbouring approximately 5–6 month-old B. malayi infection. The parasites were washed thoroughly with HBSS (pH 7.2) containing antibiotics (penicillin: 100 U/ml; streptomycin: 100 μg/ml) and used for the present study.
(§10) Motility and 3-(4,5-dimethylthiazol-2-yl)-2,5 diphenyltetrazolium bromide (MTT; Sigma-Aldrich, USA) reduction assays that indicate viability of the parasites were used. Test samples and ivermectin (purity 95 %; Sigma-Aldrich, USA) were dissolved in dimethyl sulfoxide (DMSO; Sigma-Aldrich, USA); the final concentration of DMSO in the incubation medium Hanks Balanced Salt Solution (HBSS; Sigma-Aldrich, USA) containing 100 U/ml penicillin and 100 μg/ml streptomycin (Sigma-Aldrich, USA), was kept ≤ 0.1 %. Diethylcarbamazine-citrate (DEC-C; purity 100 %; Sigma-Aldrich, USA) solution was prepared in sterile distilled water. HBSS containing DMSO (≤ 0.1 %) alone was used as negative control.
(§11) In vitro efficacy of the test agents and reference drugs was assessed on mf (40–50 mf/100 μl/well) in a 96-well cell culture plate (Nunc, Denmark) and on adult female worms (1 worm/ml/well) in a 48-well plate (Nunc, Denmark). The assays were run in triplicates.
(§12) Motility assay using mf and adult worms was carried out as described elsewhere. Changes in parasite motility was assessed under a microscope and scored as: 0 = dead (100 %); 1-4 = loss of motility (1 = 75 %; 2 = 50 %; 3 = 25 %; and 4 = no loss of motility). The experiment was repeated twice.
(§13) IC50 and CC50 of the test agents were determined using the method described elsewhere. […] The experiments were repeated twice.
as §8

[4] = system: Brugia malayi adult worms (AW); assay: MTT reduction assay on adult female worms; assay type: cell-based; conditions: for inhibition at 125 µg/mL: Brugia malayi, read-out: Mean % inhibition in MTT reduction by AW
Method: as §10, §11
MTT-reduction assay was carried out using adult worms as described elsewhere. The viability of the treated worms was assessed by calculating per cent inhibition in MTT-reduction potential of the treated worms over DMSO treated control parasites. A hundred percent inhibition in motility of female parasites or mf and or ≥ 50 % inhibition in MTT-reduction potential of the treated female parasites were considered to indicate positive antifilarial activity.
as §13

[5] = system: Brugia malayi microfilariae (Mf); assay: In vitro motility assay on microfilariae; assay type: cell-based; conditions: for IC50: read-out: IC50 for Mf in MA
Method: as §9, §10, §11, §12, §13, §8

[6] = system: Brugia malayi; assay: B. malayi-M. coucha model (secondary screening, L3 induced infection); assay type: in vivo, Mastomys coucha; conditions: for Macrofilaricidal activity (reduction in adult worm recovery over untreated control): DEC-C 50 mg/kg s.c. x 5 days, animals killed day 91 p.i.t.; for Sterile female worms: of surviving female parasites, day 91 p.i.t., control about 28 %; for Course of microfilaraemia: up to day 91 p.i.t.; for Regression line of microfilarial counts against days: trend of post-treatment microfilaraemia in Fig. 5a
From the text: as §1, §2, §3
Mastomys coucha harbouring 5–7 month-old (L3 induced) B. malayi infection and showing progressive rise in microfilaraemia was used as secondary screening model. Mf count was recorded in peripheral blood (10 μl tail blood) just before initiation of the treatment (day 0), on day 7/8 and thereafter at weekly intervals till day 91 p.i.t. The animals were killed on day 91 p.i.t.
as §4, §5, §6
Statistical analyses were carried out using GraphPad Prism 3.0 software. Results were expressed as the mean ± standard deviation (S.D.) of data obtained from 4–6 animals in two experiments. The data were analysed by Student’s ‘t’ test and one-way ANOVA followed by Tukey’s multiple comparison test, as appropriate. Differences with P < 0.05 were considered significant. The microfilaricidal efficacy of antifilarials was determined by comparing the slopes of control, K003 and DEC treated groups. The slopes of the regression line were compared by standard procedure.

[7] = system: VERO Cell line C1008; assay: CC50 cytotoxicity assay; assay type: cell-based, African green monkey; conditions: reference drugs, values in μM
Method: as §7, §8

[8] = VERO C1008 cells (African green monkey kidney cells), concentration at which 50 % of VERO cells are killed, read-out: CC50
[9] = 100 % reduction in motility (death) of adult worms
[10] = Brugia malayi, 50 % inhibition in motility of adult worms
[11] = over DMSO control, test conc.: 500 μg/ml extract/fractions, 125 μg/ml compounds, 1000 μM DEC, 10/20 μM ivermectin
[12] = 100 % reduction in motility (death) of microfilariae
[13] = Brugia malayi, 50 % inhibition in motility of microfilariae
[14] = Brugia malayi, reference drugs, values in μM

Compound	Effect on mf in peritoneal cavity [1]	Sterilised female worm count [1]	Worms recovered, Total [1]	Worms recovered, Female [1]	Worms recovered, Male [1]	CC50 [2, 8] [µg/mL]	LC100 for AW in MA [3, 9] [µg/mL]	IC50 [3, 10] [µg/mL]	inhibition at 125 µg/mL [4, 11] [%]	Mean % inhibition in MTT reduction by AW [4, 11] [%]	LC100 for Mf in MA [5, 12] [µg/mL]	IC50 [5, 13] [µg/mL]	Macrofilaricidal activity (reduction in adult worm recovery over untreated control) [6]	Sterile female worms [6] [%]	Course of microfilaraemia ([6]; peripheral blood)	Regression line of microfilarial counts against days [6]	Sterilised female worms (%) (embryostatic activity) [1]	Total worms, % reduction over untreated (macrofilaricidal activity) [1]	Effect on adult worms ([1]; DEC-C 25 mg/kg s.c. x 5 days)	LC100 for AW in MA ([3]; reference drugs, values in μM) [µM]	also measured
C=C1CCC2C(C)(C)CCC[C@@]2(C)C1CC/C(C)=C/C(=O)O (some centres unmarked) [Compound K003, labda-8(20),13-diene-15-oic acid]	ineffective against mf	8.00 ± 0.71	8.40 ± 1.14	8.00 ± 0.71	0.40 ± 0.89	180	125	74.3	> 80	82.05	31.25	18.6	~ 54% and 53.94%	> 36	had more or less no effect on microfilaraemia till day 42 p.i.t., but thereafter microfilaraemia stopped increasing as compared to control; also recorded: stopped any further rise in microfilaraemia after day 42 p.i.t	183.65 ± 0.82 days	–	–	–	–	Reduction in motility of adult worms ([3]; in vitro): 100%; Reduction in motility of mf ([5]; in vitro): 100%
C=C1CCC2C(C)(C)C(OC(C)=O)CC[C@@]2(C)C1CC/C(C)=C/C(=O)O (some centres unmarked) [Compound K001, 3-Acetoxylabda-8(20),13-diene-15-oic acid]	–	–	–	–	–	697	62.50	41.2	76.9	–	250	88.4	–	–	–	–	–	–	–	–	–
CC[C@H](CC[C@@H](C)[C@H]1CC[C@H]2[C@@H]3CC=C4C[C@@H](O)CC[C@]4(C)[C@H]3CC[C@]12C)C(C)C [Compound K002, Beta-sitosterol]	–	–	–	–	–	–	> 250	–	–	–	> 250	–	–	–	–	–	–	–	–	–	IC50 ([3]; Brugia malayi): > 250 µg/mL; inhibition at 125 µg/mL [4]: 38%; IC50 ([5]; Brugia malayi): > 250 µg/mL
CCN(CC)C(=O)N1CCN(C)CC1 [DEC-C, Diethylcarbamazine-citrate]	did not affect mf count	0.60 ± 0.89	9.20 ± 1.48	6.60 ± 1.14	2.60 ± 0.55	–	–	–	–	–	–	–	around 26.47%	20	gradually increased and relapsed by day 49 p.i.t.; the count further increased rapidly and crossed the pretreatment level by day 56 p.i.t.	-21.04 + 2.95 days	(7.86 ± 11.41) %	(22.03) %	mild macrofilaricidal activity	1000	Effect on female reproductive potential ([1]; DEC-C 25 mg/kg s.c. x 5 days): did not affect mf count or female reproductive potential; CC50 [2]: 9000 µM; IC50 [3, 14]: 315 µM; IC50 [5, 14]: 297 µM; LC100 for Mf in MA ([5]; reference drugs, values in μM): 500 µM; Reduction in microfilarial count on day 7/8 p.i.t. ([6]; DEC-C 50 mg/kg, peripheral blood): > 80%
ivermectin	did not affect mf in p.c.	2.75 ± 0.96	–	6.25 ± 1.50	2.75 ± 0.96	–	–	–	–	5.80	–	–	–	–	–	–	(44.29 ± 5.15) %	(22.43) %	mild but not statistically significant effect on adult worms	5	Sterilised female worms (%) (embryostatic activity) ([1]; listed as ivermectin): 44%; CC50 [7]: 250 µM; IC50 ([3]; reference drugs, values in μM): 3.05 µM; LC100 for Mf in MA ([5]; reference drugs, values in μM): 2.5 µM; IC50 ([5]; reference drugs, values in μM): 1.57 µM
